Data as given in patent US20260069558A1, “RXFP1 MODULATORS FOR TREATING RESISTANT HYPERTENSION OR HEART FAILURE WITH PULMONARY HYPERTENSION” (ASTRAZENECA AB, priority 2022, published 2026).
pEC50: −log10 of the molar value. ≈ marks a conversion by molar mass, not a printed value.

Legend:
human RXFP1 = target: T1, human RXFP1 (Homo sapiens, UniProt Q9HBX9); test: RXFP1 Hu cAMP (Test A), HTRF cAMP production; format: cell-based; conditions: for Test A Sinf: fitted efficacy at infinite concentration, normalized to response of 1 nM relaxin, arithmetic mean
T1 construct: expressed in transfected cells; host or cells: Jump-In T-REx CHO-K1 cells (ThermoFisher)
T1 sequence (Q9HBX9 1-757): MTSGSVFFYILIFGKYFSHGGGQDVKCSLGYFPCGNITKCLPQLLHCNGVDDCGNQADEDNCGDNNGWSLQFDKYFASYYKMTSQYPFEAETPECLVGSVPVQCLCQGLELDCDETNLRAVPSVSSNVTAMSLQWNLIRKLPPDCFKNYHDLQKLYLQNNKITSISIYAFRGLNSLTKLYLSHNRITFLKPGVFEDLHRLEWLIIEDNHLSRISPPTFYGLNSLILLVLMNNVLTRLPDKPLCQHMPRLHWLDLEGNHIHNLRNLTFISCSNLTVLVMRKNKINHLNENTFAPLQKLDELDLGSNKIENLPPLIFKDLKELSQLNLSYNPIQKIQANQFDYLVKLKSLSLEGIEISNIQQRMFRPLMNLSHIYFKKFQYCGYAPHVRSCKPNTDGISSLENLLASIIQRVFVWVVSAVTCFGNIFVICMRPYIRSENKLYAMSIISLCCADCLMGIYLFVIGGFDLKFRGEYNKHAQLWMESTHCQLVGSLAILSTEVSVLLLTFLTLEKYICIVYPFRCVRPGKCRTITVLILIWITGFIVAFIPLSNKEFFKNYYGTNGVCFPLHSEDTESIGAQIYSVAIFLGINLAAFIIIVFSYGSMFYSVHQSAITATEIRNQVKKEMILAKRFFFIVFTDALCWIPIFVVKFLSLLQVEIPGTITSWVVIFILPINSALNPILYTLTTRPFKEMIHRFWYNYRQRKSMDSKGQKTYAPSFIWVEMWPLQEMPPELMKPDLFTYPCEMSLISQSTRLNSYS
Description: To screen for modulators of hRXFP1, an assay identifying compounds that stimulate cAMP production via the Gs-coupled hRXFP1 receptor was used. cAMP HiRange HTRF kit (available from CisBio Bioassays, France; catalogue number 62AM6PEJ) was employed in large according to manufacturer's recommendations for detection of cAMP. The HTRF method is a competitive immunoassay between native cAMP produced by cells and cAMP labeled with the dye d2. The tracer binding is visualized with a cryptate labeled antibody for cAMP and the signal is thus inversely proportional to the amount of produced cAMP.
Cells: Jump-In™ T-REx™ CHO-K1 Cells (ThermoFisher) stably transfected with human RXFP1 was employed. Cells were induced to express human RXFP1 by treatment with 10 ng/ml doxycycline for 24 h. Cells were then cryopreserved for long term storage.
HTRF detection reagents: cAMP-d2 and anti-cAMP cryptate reconstituted according to CisBio instructions were diluted 1:40 in lysis buffer provided with the HTRF-kit.
Using a cAMP standard curve, HTRF data was converted to amount cAMP produced in the samples which was subsequentially used for calculation of concentration responses.
Concentration response data were fitted with a four parameter logistic fit, the Hill equation.
Where the assay was run multiple times for the same compound, the geometric mean is reported.
Sinf is the fitted activity level, efficacy, at infinite concentration of test compound. To facilitate comparison of efficacy data, efficacy was normalized to % effect of the response stimulated by a saturating concentration of relaxin (1 nM). Where the assay was run multiple times for the same compound, the arithmetic mean is reported.

[1] = Rat Hepatocyte Stability (Test E); format: in vitro ADME; conditions: rat hepatocytes; geometric mean
Protocol: Rat Hepatocyte Stability (Test E)
The assay was conducted according to the Rat Hepatocyte Stability Assay described in pages 170-174 of Wernevik, J. et al., “A Fully Integrated Assay Panel for Early Drug Metabolism and Pharmacokinetics Profiling”, Assay and Drug Development Technologies, 2020, 18(4), 157-179. Data are reported in Table 1 as mean Clint (μl/min/10^6 cells). Where the assay was run multiple times for the same compound, the geometric mean is reported.

[2] = Human Plasma Protein Binding (Test B); format: in vitro ADME; conditions: fraction unbound (fu), arithmetic mean
Protocol: Human Plasma Protein Binding (Test B)
The assay was conducted according to the Human Plasma Protein Binding Assay described in pages 167-170 of Wemevik, J. et al., “A Fully Integrated Assay Panel for Early Drug Metabolism and Pharmacokinetics Profiling”, Assay and Drug Development Technologies, 2020, 18(4), 157-179. Data are reported in Table 1 as fraction unbound (fu) (% free). Where the assay was run multiple times for the same compound, the arithmetic mean is reported.

Solubility (Test F) = format: physicochemical; conditions: arithmetic mean
Protocol: The assay was conducted according to the Solubility Assay described in pages 164-167 of Wemevik, J. et al., “A Fully Integrated Assay Panel for Early Drug Metabolism and Pharmacokinetics Profiling”, Assay and Drug Development Technologies, 2020, 18(4), 157-179. Where the assay was run multiple times for the same compound, the arithmetic mean is reported.

[3] = Human Liver Microsomal Stability (Test C); format: in vitro ADME; conditions: human liver microsomes; arithmetic mean
Protocol: Human Liver Microsomal Stability (Test C)
The assay was conducted according to the Human Liver Microsome Stability Assay described in pages 170-174 of Wemevik, J. et al., “A Fully Integrated Assay Panel for Early Drug Metabolism and Pharmacokinetics Profiling”, Assay and Drug Development Technologies, 2020, 18(4), 157-179. Data are reported in Table 1 as CLint (μl/min/mg protein).
Where the assay was run multiple times for the same compound, the arithmetic mean is reported.

[4] = Human Hepatocyte Stability (Test D); format: in vitro ADME; conditions: cryopreserved pooled human hepatocytes (LiverPool 10-Donor), geometric mean
Protocol: Human Hepatocyte Stability (Test D)
Prepare 10 mM stock solutions of compound and control compounds in appropriate solvent (DMSO). Place incubation medium (L-15 Medium) in a 37° C. water bath, and allow warming for at least 15 minutes prior to use. • 2. […] Remove a vial of cryopreserved (less than −150° C.) human hepatocytes (LiverPool™ 10-Donor Human hepatocytes obtained from Bioreclamation IVT (Product No. S01205)) from storage, ensuring that vials remain at cryogenic temperatures until thawing process ensues. As quickly as possible, thaw the cells by placing the vial in a 37° C. water bath and gently shaking the vials. Vials should remain in water bath until all ice crystals have dissolved and are no longer visible. After thawing is complete, spray vial with 70% ethanol, transfer the vial to a bio-safety cabinet. • 5. Open the vial and pour the contents into the 50 mL conical tube containing thawing medium. Place the 50 mL conical tube into a centrifuge and spin at 100 g for 10 minutes (room temperature). […] Using Cellometer® Vision, count cells and determine the viable cell density. […]
All calculations were carried out using Microsoft Excel. Peak areas were determined from extracted ion chromatograms. In vitro intrinsic clearance (in vitro Clint, in μL/min/10^6 cells) of parent compound was determined by regression analysis of the Ln percent parent disappearance vs. time curve.

pEC50 (human RXFP1; cAMP production, Jump-In T-REx CHO-K1 cells stably transfected with human RXFP1, geometric mean)	Test A Sinf (human RXFP1)	hepatocyte CLint [1]	Test B Human Plasma Protein Binding (% free) [2]	solubility (Solubility (Test F))	microsomal CLint [3]	hepatocyte CLint at 1 µM [4]	Structure (SMILES)
6.64	101%						COc1cc(F)c(O[C@H]2CC[C@@](C)(C(=O)O)CC2)cc1C(=O)N[C@@H]1[C@H]2CC[C@H](C2)[C@@H]1C(=O)NCC1CCC1 [Example 2, (1S,4s)-4-(5-(((1S,2R,3S,4R)-3-((cyclobutylmethyl)carbamoyl)bicyclo[2.2.1]heptan-2-yl)carbamoyl)-2-fluoro-4-methoxyphenoxy)-1-methylcyclohexane-1-carboxylic acid]
		15 µL/min/1e6 cells	12 % free	910 µM (≈ 491 µg/mL)	< 3 µL/min/mg	< 1.2 µL/min/1e6 cells	COc1cc(C#N)c(O[C@H]2CC[C@@](C)(C(=O)O)CC2)cc1C(=O)N[C@@H]1[C@H]2CC[C@H](C2)[C@@H]1C(=O)NCC(C)(C)C [Example 5, (1S,4s)-4-(2-cyano-4-methoxy-5-(((1S,2R,3S,4R)-3-(neopentylcarbamoyl)bicyclo[2.2.1]heptan-2-yl)carbamoyl)phenoxy)-1-methylcyclohexane-1-carboxylic acid]
	97%						COc1cc(C#N)c(O[C@H]2CC[C@@](C)(C(=O)O)CC2)cc1C(=O)N[C@@H]1[C@H]2CC[C@H](C2)[C@@H]1C(=O)NCC1CC1 [Example 3, (1S,4s)-4-(2-Cyano-5-(((1S,2R,3S,4R)-3-((cyclopropylmethyl)carbamoyl)bicyclo[2.2.1]heptan-2-yl)carbamoyl)-4-methoxyphenoxy)-1-methylcyclohexane-1-carboxylic acid]
